≈ marks a conversion by molar mass, not a printed value. Read-outs that look alike come from different tables or passages of the source.
Tests used:
MetRS (C. parvum) = MetRS (C. parvum) (Cryptosporidium parvum, UniProt Q5CVN0); test: MetRS (C. parvum) enzyme inhibition; assay type: biochemical; conditions: read-out: (C) MetRS (C. parvum) IC50
MetRS (T. brucei) = target: T1, MetRS (T. brucei) (Trypanosoma brucei brucei, UniProt Q38C91); test: MetRS (T. brucei) enzyme inhibition; assay type: biochemical
T1 sequence (Q38C91 1-773): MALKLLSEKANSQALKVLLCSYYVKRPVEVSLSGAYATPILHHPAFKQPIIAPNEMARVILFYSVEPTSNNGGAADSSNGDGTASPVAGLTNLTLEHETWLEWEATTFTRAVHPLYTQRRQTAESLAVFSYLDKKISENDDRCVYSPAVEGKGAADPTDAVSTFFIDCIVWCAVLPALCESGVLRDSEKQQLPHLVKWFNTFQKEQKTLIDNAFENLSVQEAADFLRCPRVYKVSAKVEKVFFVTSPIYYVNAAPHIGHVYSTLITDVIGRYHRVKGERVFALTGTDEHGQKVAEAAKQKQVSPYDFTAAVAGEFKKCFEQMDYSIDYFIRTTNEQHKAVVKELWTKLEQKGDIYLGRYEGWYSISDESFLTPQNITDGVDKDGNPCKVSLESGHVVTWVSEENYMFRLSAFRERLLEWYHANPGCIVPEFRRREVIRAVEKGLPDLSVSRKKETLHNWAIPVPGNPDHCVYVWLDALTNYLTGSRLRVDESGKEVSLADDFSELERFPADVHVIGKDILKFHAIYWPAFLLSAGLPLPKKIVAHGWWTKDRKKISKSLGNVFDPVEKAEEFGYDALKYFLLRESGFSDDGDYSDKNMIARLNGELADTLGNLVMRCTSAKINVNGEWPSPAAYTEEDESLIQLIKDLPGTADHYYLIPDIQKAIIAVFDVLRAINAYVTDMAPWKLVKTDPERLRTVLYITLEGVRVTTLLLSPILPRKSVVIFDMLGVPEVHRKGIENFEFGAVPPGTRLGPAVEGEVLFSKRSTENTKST

[1] = target: recombinant S. aureus MetRS enzyme (Staphylococcus aureus, UniProt A0A0H2XID2); test: Inhibition of SaMetRS, ATP depletion assay; assay type: biochemical; conditions: read-out: (B) MetRS (S. aureus) IC50
Experimental: Production of recombinant S. aureus MetRSs. The SaMetRS gene (UniProtKB—A0A0H2XID2) was PCR amplified (Sense 5′-[…]-3′ (SEQ ID NO: 1) and Antisense 5′-[…]-3′ (SEQ ID NO:2)) from genomic DNA isolated from S. aureus (ATCC 29213) cultures. The PCR product was then cloned into the AVA0421 plasmid and sequence verified. The expression of recombinant protein was performed as previously described. The N-terminal 6-His fusion proteins were purified by nickel affinity chromatography followed by size exclusion gel chromatography (Superdex 75 26/60; GE Biosciences, Piscataway, N.J.).
Enzyme assays. Inhibition of SaMetRS was measured using the ATP depletion assay as previously described with some modifications. Compounds were pre-incubated for 15 minutes at room temperature in a 96-well plate with 400 μg/mL bulk E. coli tRNA, 25 nM SaMetRS, 0.1 U/mL pyrophosphatase, 0.2 mM spermine, 0.1 mg/mL bovine serum albumin, 2.5 mM dithiothreitol, 25 mM HEPES-KOH pH 7.9, 10 mM MgCl2, 50 mM KCl, and 2% DMSO. Reagents were purchased from Sigma-Aldrich or Roche. The reaction was started with the addition of 150 nM ATP and 20 μM L-methionine and after 120 minute incubation was stopped by the addition of an equal volume (50 μL) of Kinase-Glo® (Promega). Percent inhibition=100×(test compound−AVG low control)/(AVG high control−AVG low control) where the low control is all reagents except the compound and the high control is all reagents except the compounds and L-methionine. IC50 values were calculated by non-linear regression, sigmoidal-dose response, in Prism 3.0.

T. cruzi = T. cruzi growth inhibition; assay type: cell-based, Trypanosoma cruzi; conditions: read-out: (E) T. cruzi EC50
T. brucei = T. brucei growth inhibition; assay type: cell-based, Trypanosoma brucei; conditions: read-out: (D) T. brucei EC50
[2] = tested on: S. aureus MSSA (ATCC 29213); test: MIC susceptibility testing; assay type: cell-based, Staphylococcus aureus; conditions: S. aureus ATCC 29213; for MIC: Staphylococcus aureus, read-out: (F) S. aureus (ATCC 29213) MIC
[3] = tested on: E. faecium VRE (ATCC 51559); test: MIC susceptibility testing; assay type: cell-based, Enterococcus faecium; conditions: E. faecium ATCC 51559; for MIC: Enterococcus faecium, read-out: (I) E. faecium (ATCC 51559) MIC
Text: Media and culture conditions. Mueller Hinton broth (MHB), cation adjusted Mueller Hinton broth (CA-MHB), and Brain Heart Infusion broth (BHI) were purchased from Becton Dickinson (Franklin Lakes, N.J.). Tryptic soy agar (TSA) plates, TSA with 5% sheep blood plates, and CA-MHB with 3% laked horse blood were purchased from Remel (San Diego, Calif.). MHB was used to assay all Staphylococcus aureus strains. CA-MHB was used for Staphylococcus epidermidis, Enterococcus faecalis, Enterococcus faecium, Escherichia coli, and Pseudomonas aeruginosa. CA-MHB supplemented with 3% laked horse blood was used for Streptococcus pneumoniae and Streptococcus pyogenes. Staphylococcus, Enterococcus, Escherichia, and Pseudomonas strains were cultured at 37° C. with ambient air. Streptococcus strains were cultured in 37° C. with 5% CO2. Separate conditions for radiolabeled precursor uptake assays are described below.
Susceptibility testing: Minimum inhibitory concentration (MIC) determinations were performed in triplicate in 96-well round bottom microtiter plates (Corning, Corning N.Y.) as described by the Clinical and Laboratory Standards Institute (CLSI). Serial two-fold dilutions of compounds were added to plates in 50 μL volumes. An additional 50 μL of media containing bacterial cells (1×10^6 CFUs/mL) was then added to each well. Maximum DMSO concentrations were 0.5%. Plates were incubated at 37° C. for at least 18 h before reading the susceptibility result by optical absorbance (OD600) using a BioTek ELx800. The lowest concentration causing ≥90% growth inhibition compared to the untreated control was recorded as the MIC (and also corresponded to the visual MIC). MICs were measured at least twice and the higher value (if different) was recorded herein.

C. parvum = C. parvum growth inhibition; assay type: cell-based, Cryptosporidium parvum; conditions: Cryptosporidium parvum; read-out: (J) C. parvum EC50
[4] = tested on: S. aureus MRSA (ATCC 33591); test: MIC susceptibility testing; assay type: cell-based, Staphylococcus aureus; conditions: Staphylococcus aureus, MRSA ATCC33591; read-out: (G) MRSA (ATCC33591) MIC
Method in brief: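 CLSI broth microdilution in triplicate, 5×10^5 CFU/mL final, ≤0.5% DMSO; MHB for S. aureus, CA-MHB for E. coli and E. faecium, CA-MHB plus 3% laked horse blood for S. pyogenes (5% CO2).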

Sequence of MetRS (C. parvum) (Q5CVN0 entry or part of it): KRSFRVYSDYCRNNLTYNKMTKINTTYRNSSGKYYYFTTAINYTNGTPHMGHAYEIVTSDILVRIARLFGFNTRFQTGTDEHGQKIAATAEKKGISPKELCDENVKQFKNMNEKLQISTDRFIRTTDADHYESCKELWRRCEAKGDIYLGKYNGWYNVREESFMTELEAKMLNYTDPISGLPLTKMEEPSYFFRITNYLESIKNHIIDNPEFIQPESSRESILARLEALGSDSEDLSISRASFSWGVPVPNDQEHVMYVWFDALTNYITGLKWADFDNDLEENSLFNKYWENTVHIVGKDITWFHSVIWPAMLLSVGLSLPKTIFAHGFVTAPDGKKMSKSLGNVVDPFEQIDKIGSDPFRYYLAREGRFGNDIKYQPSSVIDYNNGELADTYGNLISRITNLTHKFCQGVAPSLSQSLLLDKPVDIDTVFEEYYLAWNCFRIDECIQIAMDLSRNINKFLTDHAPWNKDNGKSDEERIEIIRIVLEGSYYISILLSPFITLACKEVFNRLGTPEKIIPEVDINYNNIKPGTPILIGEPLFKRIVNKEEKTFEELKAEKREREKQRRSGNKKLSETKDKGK
Sequence of recombinant S. aureus MetRS enzyme (A0A0H2XID2 2-657): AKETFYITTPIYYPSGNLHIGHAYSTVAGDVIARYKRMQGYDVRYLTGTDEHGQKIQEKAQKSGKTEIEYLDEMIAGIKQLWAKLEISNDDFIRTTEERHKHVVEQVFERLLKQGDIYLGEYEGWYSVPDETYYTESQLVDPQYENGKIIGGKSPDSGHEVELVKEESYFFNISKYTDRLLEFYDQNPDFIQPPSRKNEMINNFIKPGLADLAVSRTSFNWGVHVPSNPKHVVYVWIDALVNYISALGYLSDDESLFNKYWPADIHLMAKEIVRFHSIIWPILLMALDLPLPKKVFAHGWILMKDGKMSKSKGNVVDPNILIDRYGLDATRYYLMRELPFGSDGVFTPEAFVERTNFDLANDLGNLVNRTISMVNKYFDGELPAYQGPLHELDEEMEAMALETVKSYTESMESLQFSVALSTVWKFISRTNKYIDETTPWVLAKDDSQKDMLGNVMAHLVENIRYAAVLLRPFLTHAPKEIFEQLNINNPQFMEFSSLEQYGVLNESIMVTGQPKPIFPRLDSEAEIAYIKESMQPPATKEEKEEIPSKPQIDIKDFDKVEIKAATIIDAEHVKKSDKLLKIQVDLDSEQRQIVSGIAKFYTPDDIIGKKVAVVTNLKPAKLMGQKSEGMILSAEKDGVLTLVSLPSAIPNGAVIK

Structure (SMILES) | IC50 (MetRS (C. parvum)) | IC50 (MetRS (T. brucei)) | IC50 [1] | EC50 (T. cruzi; Trypanosoma cruzi) | EC50 (T. cruzi) | EC50 (T. brucei; Trypanosoma brucei) | MIC [2] | (I) E. faecium (ATCC 51559) MIC [3] | MIC [3] | EC50 (T. brucei) | EC50 (C. parvum) | (F) S. aureus (ATCC 29213) MIC [2] | MIC [4]
COc1cc(-c2cccc3nc(Cc4nc5nc(F)ccc5[nH]4)cn23)c(Cl)cc1Cl [Compound 2129, 5-(2,4-dichloro-5-methoxyphenyl)-2-({5-fluoro-1H-imidazo[4,5-b]pyridin-2-yl}methyl)imidazo[1,2-a]pyridine] | < 40 nM | < 40 nM | < 25 nM | 102 nM | 82 nM | – | – | – | – | – | – | – | –
CS(=O)(=O)c1nc(Cc2ccc(Cl)cc2Cl)cn1Cc1nc2ccc(F)nc2[nH]1 [Compound 2105, 4-[(2,4-dichlorophenyl)methyl]-1-({5-fluoro-1H-imidazo[4,5-b]pyridin-2-yl}methyl)-2-methanesulfonyl-1H-imidazole] | 109 nM | < 40 nM | < 25 nM | 867 nM | – | 71.5 nM | 2.15 µg/mL (≈ 4.73 µM) | – | – | – | – | – | –
CC(C)(O)Cn1c(Cc2ccc(Cl)cc2Cl)cn(Cc2nc3ccc(Cl)nc3[nH]2)c1=O [Compound 2211, 1-((5-chloro-3H-imidazo[4,5-b]pyridin-2-yl)methyl)-4-(2,4-dichlorobenzyl)-3-(2-hydroxy-2-methylpropyl)-1,3-dihydro-2H-imidazol-2-one] | 50.2 nM | < 40 nM | – | 21.7 nM | 22.1 nM | < 0.91 nM | 0.493 µg/mL (≈ 1.03 µM) | 0.281 µg/mL | 0.389 µg/mL (≈ 0.809 µM) | 1.16 nM | 1170 nM | 0.590 µg/mL | 0.489 µg/mL (≈ 1.02 µM)
COc1cc(Cl)c(-c2cccc3nc(Cc4nc5nc(F)ccc5[nH]4)cn23)cc1OC [Compound 2145, 5-(2-chloro-4,5-dimethoxyphenyl)-2-({5-fluoro-1H-imidazo[4,5-b]pyridin-2-yl}methyl)imidazo[1,2-a]pyridine] | 74.7 nM | < 40 nM | < 25 nM | 66.7 nM | 129 nM | – | – | – | – | – | > 2000 nM | – | –
CCn1c(Cc2ccc(Cl)cc2Cl)cn(Cc2nc3ccc(Cl)c(C#N)c3[nH]2)c1=O [Compound 2210, 6-chlor0-2-({4-[(2,4-dichlorophenyl)methyl]-3-ethyl-2-oxo-2,3-dihydro-1H-imidazol-1-yl}methyl)-1H-1,3-benzodiazole-7-carbonitrile] | < 40 nM | < 40 nM | – | 108 nM | – | 6.72 nM | 0.285 µg/mL (≈ 0.619 µM) | – | 0.166 µg/mL (≈ 0.36 µM) | – | > 2000 nM | – | 0.298 µg/mL (≈ 0.647 µM)
CCOC(=O)Cn1c(C(=O)c2ccc(Cl)cc2Cl)cn(Cc2nc3ccc(Cl)nc3[nH]2)c1=O [Compound 2215, ethyl 2-[3-({5-chloro-1H-imidazo[4,5-b]pyridin-2-yl}methyl)-5-(2,4-dichlorobenzoyl)-2-oxo-2,3-dihydro-1H-imidazol-1-yl]acetate] | < 40 nM | < 40 nM | – | 14.8 nM | 25.4 nM | < 0.91 nM | 0.298 µg/mL (≈ 0.586 µM) | – | 0.272 µg/mL (≈ 0.535 µM) | 0.46 nM | > 2000 nM | – | 0.26 µg/mL (≈ 0.511 µM)
CS(=O)(=O)c1nc(Cc2ccc(Cl)cc2Cl)cn1Cc1nc2nc(Cl)ccc2[nH]1 [Compound 2111, 1-({5-chloro-1H-imidazo[4,5-b]pyridin-2-yl}methyl)-4-[(2,4-dichlorophenyl)methyl]-2-methanesulfonyl-1H-imidazole] | 146 nM | < 40 nM | < 25 nM | 445 nM | – | 54.6 nM | 1.25 µg/mL (≈ 2.66 µM) | – | – | – | – | – | –
CCn1c(C(=O)c2ccc(Cl)cc2Cl)cn(Cc2nc3ccc(Cl)nc3[nH]2)c1=O [Compound 2203, 1-((5-chloro-3H-imidazo[4,5-b]pyridin-2-yl)methyl)-4-(2,4-dichlorobenzoyl)-3-ethyl-1,3-dihydro-2H-imidazol-2-one] | 99.4 nM | < 40 nM | – | 34.7 nM | 45.2 nM | 1.73 nM | 0.34 µg/mL (≈ 0.754 µM) | – | 0.172 µg/mL (≈ 0.382 µM) | – | > 2000 nM | – | 0.359 µg/mL (≈ 0.797 µM)
COc1ccc(-c2cncc3nc(Cc4nc5nc(Cl)ccc5[nH]4)cn23)c(Cl)c1 [Compound 2156, 2-({5-chloro-1H-imidazo[4,5-b]pyridin-2-yl}methyl)-5-(2-chloro-4-methoxyphenyl)imidazo[1,2-a]pyrazine] | < 40 nM | < 40 nM | – | 319 nM | – | 32 nM | 1.1 µg/mL (≈ 2.59 µM) | – | 1.49 µg/mL (≈ 3.5 µM) | – | 1290 nM | 0.946 µg/mL | 0.285 µg/mL (≈ 0.67 µM)
O=C(c1cn(Cc2nc3ccc(Cl)nc3[nH]2)c(=O)[nH]1)c1ccc(Cl)cc1Cl [Compound 2201, 1-({5-chloro-1H-imidazo[4,5-b]pyridin-2-yl}methyl)-4-(2,4-dichlorobenzoyl)-2,3-dihydro-1H-imidazol-2-one] | 72.2 nM | < 40 nM | – | 207 nM | – | 4.88 nM | 0.863 µg/mL (≈ 2.04 µM) | – | 0.979 µg/mL (≈ 2.32 µM) | – | > 2000 nM | 0.946 µg/mL | 0.701 µg/mL (≈ 1.66 µM)
O=c1n(Cc2nc3ccc(Cl)nc3[nH]2)cc(Cc2ccc(Cl)cc2Cl)n1CCO [Compound 2213, 1-({5-chloro-1H-imidazo[4,5-b]pyridin-2-yl}methyl)-4-[(2,4-dichlorophenyl)-methyl]-3-(2-hydroxyethyl)-2,3-dihydro-1H-imidazol-2-one] | < 40 nM | < 40 nM | – | 63.4 nM | 71.3 nM | 2.12 nM | 0.422 µg/mL (≈ 0.932 µM) | – | 0.272 µg/mL (≈ 0.601 µM) | – | 1910 nM | 0.574 µg/mL | 0.52 µg/mL (≈ 1.15 µM)
